The source of these data is patent US5643917A, “4-aminomethyl-1-azaadamantane derived benzamides” (priority 1995, dated 1997).

Counter-ions that a name gives are not always drawn.

For test [1], the system named is 5-HT4 receptor subtype. The note with it: mouse embryonic colliculi neurons; cited from earlier work.
The subject of test [2] is 5-HT4 receptors. The note with it: cited from earlier work.
Test [3] deals with gastric emptying of solid meals. Description: Canine gastric emptying in vivo model, alpha-2 adrenergic model of gastroparesis, solid meal. As to conditions: % emptied, treated, emptying delayed by alpha-2 adrenergic agonist. Also on record: species or system dog.
In test [4] the target is T1, 5-HT3 receptors (Mus musculus, UniProt P23979).
T1 construct: endogenous in cells; host or cells: NG108-15 neuroblastoma cells (membranes)
T1 sequence (P23979 24-489): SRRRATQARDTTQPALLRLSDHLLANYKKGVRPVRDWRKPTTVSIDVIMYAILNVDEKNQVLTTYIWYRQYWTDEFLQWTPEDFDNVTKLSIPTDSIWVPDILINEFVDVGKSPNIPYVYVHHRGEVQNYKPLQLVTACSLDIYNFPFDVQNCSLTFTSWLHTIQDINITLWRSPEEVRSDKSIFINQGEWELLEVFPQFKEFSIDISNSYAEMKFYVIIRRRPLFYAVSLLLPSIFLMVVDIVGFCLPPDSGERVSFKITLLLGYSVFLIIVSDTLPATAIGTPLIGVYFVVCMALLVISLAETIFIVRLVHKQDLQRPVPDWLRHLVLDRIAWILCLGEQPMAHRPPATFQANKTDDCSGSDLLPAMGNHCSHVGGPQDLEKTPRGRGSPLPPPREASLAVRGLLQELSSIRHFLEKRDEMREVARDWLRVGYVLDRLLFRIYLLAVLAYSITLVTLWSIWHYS
As to the kind of experiment: Serotonin 5-HT3 receptor binding assay, [3H]GR65630, NG108-15 membranes. As to conditions: for Ki: Ki (5-HT3 receptors), [3H]GR65630 1 nM, apparent Ki calculated from IC50. Here is the method: Preparation of Membrane Suspensions
NG108-15 neuroblastoma cells were cultured at 37° C. in closed culture flasks for 3-4 days or to confluence (6-16×10^6 cells/flask). […] The cells were centrifuged at 900×g for five minutes at 4° C. At this point the cells could be frozen. The (frozen or freshly prepared) pellets from each flask were suspended in 4 ml buffer and homogenized a second time as above. The resulting supernatant was used for radioligand binding studies.
To each well of a microtiter plate were added 100 μl tissue, 50 μl [^3 H]GR65630 (4 nM stock, SA=64 Ci/mmol from Dupont/NEN) and 50 μl drugs. Nonspecific binding was measured in the presence of 10 μM zacopride. Reactions were incubated for 45-60 minutes at 25° C. followed by filtration under reduced pressure through GF/B-type filters with the aid of either a Brandel or Skatron macro harvester. The filters were washed with ice-cold buffer (a 6 sec wash time on the Skatron harvester, using filters presoaked with polyethylenimine) and specific binding was measured by either a Packard CA 1900 or an LKB Betaplate counter. […] IC50 values were determined for test drugs, and Ki values calculated from the equation: […]

The test system of test [5] is GI transit. The note with it: man; cited from earlier work.
For test [6], the system named is GI transit. As to conditions: man; cited from earlier work. The source holds these as a separate data set.
In test [7] the test system is guinea pig stomach muscle strip. As to conditions: cited from earlier work.
Test [8] has as its system gastric emptying. As to conditions: cited from earlier work.
The subject of test [9] is gastric emptying. As to conditions: in vivo; cited from earlier work.
Test [10] relates to antroduodenal motility. The note with it: coadministered with cisapride; dogs; cited from earlier work.
Test [11] has as its system transit of a charcoal meal. The note with it: mouse, in vivo; cited from earlier work.
Test [12] concerns peristalsis in the GI tract. As to conditions: various animal models; cited from earlier work.
For test [13], the system named is guinea pig stomach strips. As to conditions: cited from earlier work.
Test [14] relates to 5-HT3-mediated Bezold Jarisch reflex. As to conditions: in vivo; cited from earlier work.

`COc1cc(N)c(Cl)cc1C(=O)NC1CCN2CCCC1C2` (stereo not shown) [BRL-24924]: the “correlation of prokinetic activity with 5-HT4 agonist activity” value in [1] was “correlate with agonist activity at a novel 5-HT4 receptor subtype”. The “receptor mediating the peristaltic reflex” value in [2] was “mediated through agonism at 5-HT4 receptors”.
With `COc1cc(N)c(Cl)cc1C(=O)NC1CCN(CCCOc2ccc(F)cc2)CC1OC` (stereo not shown) [Cisapride], the “Canine Solid Gastric Emptying (% Control to Treat)” value in test [3] (control 23.2%, at 0.3 mg/kg IG) came to 36.6%. Moreover, the “correlation of prokinetic activity with 5-HT4 agonist activity” value in [1] is on record as “correlate with agonist activity at a novel 5-HT4 receptor subtype”.
On to `COc1cc(N)c(Cl)cc1C(=O)NCC1C2CC3CC1CN(C3)C2` (stereo not drawn) [Example 2, Endo-4-amino-N-(1-azacyclo[3.3.1.1^3,7]decan-4-ylmethyl)-5-chloro-2-methoxybenzamide hydrochloride], for which the Ki in [4] (NG108-15 membranes, 25° C.) is 144 nM.
Consider `COc1cc(N)c(Cl)cc1C(=O)NCC1C2CC3CC1CN(C3)C2` (stereo not drawn) [Example 4, Exo-4-amino-N-(1-azacyclo[3.3.1.1^3,7]decan-4-ylmethyl)-5-chloro-2-methoxybenzamide, hydrochloride], for which, in [3] (control 20.2%, at 0.3 mg/kg IV), the “Canine Solid Gastric Emptying (% Control to Treat)” value came out at 35.1%. Besides, the Ki in test [4] (NG108-15 membranes, 25° C.) is 25.7 nM.
For the molecule `Cc1nccn1CC1CCc2c(c3ccccc3n2C)C1=O` (stereo not shown) [GR38032], in test [5], the “small intestinal transit times or mouth-to-cecum transit times” value is reported as “did not alter small intestinal transit times or mouth-to-cecumtransit times”. For the same molecule, in test [6], the GI transit entry is “failed to accelerate GI transit” and the colonic transit result is recorded as “slowed colonic transit in man”.
For `CN1[C@@H]2CC[C@H]1C[C@@H](OC(=O)c1c[nH]c3ccccc13)C2` [ICS-205930], the “guinea pig stomach muscle strip contraction in vitro” value in test [7] was “enhanced guinea pig stomach muscle strip contraction in vitro”. In addition, the “gastric emptying rates in vivo” value in test [8] is “increases in gastric emptying rates in vivo”. For the same molecule, in [9], the gastric emptying result was “enhanced gastric emptying”. Besides, in [10], the “effect on the responses to cisapride” value is given as “did not affect the responses to cisapride”.
With `CN1[C@@H]2CC[C@H]1C[C@@H](OC(=O)c1cc(Cl)cc(Cl)c1)C2` [MDL 72222], the “guinea pig stomach muscle strip contraction in vitro” value in test [7] was “enhanced guinea pig stomach muscle strip contraction in vitro”. In addition, the “gastric emptying rates in vivo” value in test [8] is “increases in gastric emptying rates in vivo”.
In the case of `Cc1nccn1CC1CCc2c(c3ccccc3n2C)C1=O.Cl.O.O` (stereo not shown) [SN-307], the “transit of a charcoal meal in mice” value in [11] is given as “enhanced transit of a charcoal meal in mice”.
Take `NCCc1c[nH]c2ccc(O)cc12` [Serotonin, 5-hydroxytryptamine]: the “receptor mediating the peristaltic reflex” value in test [2] is listed as “mediated through agonism at 5-HT4 receptors”. In addition, in [12], the “peristalsis in the GI tract” value is recorded as “promote peristalsis in the GI tract”.
In general, Kd refers to the concentration at which binding is half-saturated. High values mean lower affinity, low ones higher affinity. For `Cc1nc[nH]c1CCC(=O)c1cn(C)c2ccccc12` [[^3 H]GR65630], in [4], the affinity, expressed as Kd, was 1.5 nM. Besides, in [4] (radioligand, NG108-15 membranes, 25° C.), the Bmax turned out to be 195 fmole/mg protein.
Consider `CCN(CC)CCNC(=O)c1cc(Cl)c(N)cc1OC` [metoclopramide], for which, in test [13], the “electrical-field stimulated contractions in guinea pig stomach strips” value is “enhanced electrical-field stimulated contractions”. Moreover, the “guinea pig stomach muscle strip contraction in vitro” value in [7] is reported as “enhanced guinea pig stomach muscle strip contraction in vitro”. Besides, the “gastric emptying rates in vivo” value in test [8] is “increases in gastric emptying rates in vivo”. Besides, in [14], the “5-HT3-mediated Bezold Jarisch reflex” value is “blocks the 5-HT3 -mediated Bezold Jarisch reflex”.
